Experimental data reported in ChEMBL document CHEMBL4130568, “Benzoxaboroles as Efficient Inhibitors of the β-Carbonic Anhydrases from Pathogenic Fungi: Activity and Modeling Study” (ACS Med Chem Lett, 2017).

Key:
[1] = Inhibition of Malassezia globosa beta-carbonic anhydrase incubated for 15 mins prior to testing by stopped flow CO2 hydrase assay
Carbonic anhydrase = target: T1, Carbonic anhydrase (Candida glabrata CBS 138, UniProt Q6FTL6); assay: Inhibition of Candida glabrata Nce103 incubated for 15 mins prior to testing by stopped flow CO2 hydrase assay; parameters: species or system Nakaseomyces glabratus
T1 sequence (Q6FTL6 whole entry): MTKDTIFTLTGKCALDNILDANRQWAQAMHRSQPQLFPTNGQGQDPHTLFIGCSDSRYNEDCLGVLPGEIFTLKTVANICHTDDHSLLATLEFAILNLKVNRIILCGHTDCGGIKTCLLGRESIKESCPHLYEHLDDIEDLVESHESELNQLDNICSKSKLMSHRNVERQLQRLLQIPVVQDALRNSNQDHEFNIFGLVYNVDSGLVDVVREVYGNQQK

Carbonic anhydrase 2 [2] = target: Carbonic anhydrase 2 (Homo sapiens, UniProt P00918); assay: Inhibition of human carbonic anhydrase-2 incubated for 15 mins prior to testing by stopped flow CO2 hydrase assay
Carbonic anhydrase 1 = Carbonic anhydrase 1 (Homo sapiens, UniProt P00915); assay: Inhibition of human carbonic anhydrase-1 incubated for 15 mins prior to testing by stopped flow CO2 hydrase assay
Carbonic anhydrase 1, sequence (P00915 whole entry): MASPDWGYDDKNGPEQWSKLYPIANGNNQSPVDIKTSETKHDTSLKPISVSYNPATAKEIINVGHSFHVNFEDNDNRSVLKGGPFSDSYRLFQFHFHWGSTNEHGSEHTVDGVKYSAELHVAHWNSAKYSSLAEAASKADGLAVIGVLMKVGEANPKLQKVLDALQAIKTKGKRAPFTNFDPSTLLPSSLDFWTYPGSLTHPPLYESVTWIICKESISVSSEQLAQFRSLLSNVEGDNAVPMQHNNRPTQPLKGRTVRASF

Carbonic anhydrase 2 [3] = target: T2, Carbonic anhydrase 2 (Cryptococcus neoformans, UniProt Q3I4V7); assay: Inhibition of Cryptococcus neoformans Can2 incubated for 15 mins prior to testing by stopped flow CO2 hydrase assay
T2 sequence (Q3I4V7 whole entry): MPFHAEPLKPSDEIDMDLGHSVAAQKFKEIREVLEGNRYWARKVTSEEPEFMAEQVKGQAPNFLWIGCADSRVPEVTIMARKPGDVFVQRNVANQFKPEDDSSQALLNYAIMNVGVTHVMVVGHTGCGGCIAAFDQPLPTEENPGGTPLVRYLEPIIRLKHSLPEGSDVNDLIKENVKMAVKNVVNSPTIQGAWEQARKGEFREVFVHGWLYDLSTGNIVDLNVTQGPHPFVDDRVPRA

SMILES | Ki [1] [nM] | Ki (Carbonic anhydrase) [nM] | Ki (Carbonic anhydrase 2 [2]) [nM] | Ki (Carbonic anhydrase 1) [nM] | Ki (Carbonic anhydrase 2 [3]) [nM]
O=[N+]([O-])c1ccc(NC(=S)Nc2ccc3c(c2)B(O)OC3)cc1 | 8680 | 96 | > 10000 | 385 | 79
O=C(NCc1ccccc1)Nc1ccc2c(c1)B(O)OC2 | 58200 | 201 | 439 | 557 | 602
O=C(Nc1ccc(C(F)(F)F)cc1)Nc1ccc2c(c1)B(O)OC2 | 73600 | 96 | 456 | 487 | 84
O=C(Nc1ccccc1)Nc1ccc2c(c1)B(O)OC2 | 63700 | 86 | 730 | 654 | 81
COc1ccc(NC(=S)Nc2ccc3c(c2)B(O)OC3)cc1 | 28800 | 86 | – | – | 89
OB1OCc2ccc(NC(=S)Nc3ccc(C(F)(F)F)cc3)cc21 | 49800 | 112 | 1840 | 417 | 275
OB1OCc2ccc(NC(=S)NCc3ccco3)cc21 | 6100 | 229 | – | – | 236
OB1OCc2ccc(NC(=S)NCCc3ccccc3)cc21 | 22500 | 467 | – | – | 676
O=C(NCc1ccco1)Nc1ccc2c(c1)B(O)OC2 | 55600 | 96 | – | – | 283
Nc1ccc2c(c1)B(O)OC2 | 44600 | 244 | 590 | 9430 | 93
Cc1cc(Cl)cc(CNC(=O)Nc2ccc3c(c2)B(O)OC3)c1 | 86800 | 79 | – | – | 400
CC(=O)c1ccc(NC(=O)Nc2ccc3c(c2)B(O)OC3)cc1 | 62200 | 203 | – | – | 65
O=C(Nc1ccc2c(c1)B(O)OC2)Nc1c(Cl)cc(Cl)cc1Cl | 98600 | 81 | – | – | 73
OB1OCc2ccc(NC(=S)Nc3ccc(F)cc3)cc21 | 30100 | 86 | 1500 | 355 | 86
O=C(Nc1ccc(Cl)cc1)Nc1ccc2c(c1)B(O)OC2 | 77900 | 81 | – | – | 92
Cc1ccc(NC(=S)Nc2ccc3c(c2)B(O)OC3)cc1 | 24900 | 89 | – | – | 181
OB1OCc2ccc(NC(=S)Nc3ccc4ccccc4c3)cc21 | 30600 | 339 | – | – | 573
O=[N+]([O-])c1ccc2c(c1)B(O)OC2 | 91300 | 89 | 504 | 6350 | 88
OB1OCc2ccc(NC(=S)Nc3ccccc3)cc21 | 21300 | 97 | 1620 | 532 | 198
O=C(Nc1ccc(F)cc1)Nc1ccc2c(c1)B(O)OC2 | 76200 | 75 | 480 | 235 | 78
OB1OCc2ccccc21 [BENZOXABOROLE] | 109000 | 260 | – | – | 174
OB1OCc2cc(F)ccc21 [TAVABOROLE] | 99000 | 72 | 462 | 2020 | 89
